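Briefly, cells in 96-well plates were exposed to five compound concentrations for 48 h, and endpoints were estimated by linear interpolation. At the TGI there is no net growth.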
How the values were obtained:
Assay in all cases: growth of human tumour cells (NCI), 48 h
786-0 renal = tested on: 786-0 renal
A498 renal = tested on: A498 renal
A549 NSCLC = tested on: A549 NSCLC
ACHN renal = tested on: ACHN renal
BT-549 breast = tested on: BT-549 breast
CAKI-1 renal = tested on: CAKI-1 renal
COLO 205 colon = tested on: COLO 205 colon
DU-145 prostate = tested on: DU-145 prostate
EKVX NSCLC = tested on: EKVX NSCLC
HCC-2998 colon = tested on: HCC-2998 colon
HCT-116 colon = tested on: HCT-116 colon
HCT-15 colon = tested on: HCT-15 colon
HOP-62 NSCLC = tested on: HOP-62 NSCLC
HOP-92 NSCLC = tested on: HOP-92 NSCLC
HS 578T breast = tested on: HS 578T breast
HT29 colon = tested on: HT29 colon
IGROV1 ovarian = tested on: IGROV1 ovarian
K-562 leukemia = tested on: K-562 leukemia
KM12 colon = tested on: KM12 colon
M14 melanoma = tested on: M14 melanoma
MALME-3M melanoma = tested on: MALME-3M melanoma
MCF7 breast = tested on: MCF7 breast
MDA-MB-231 breast = tested on: MDA-MB-231 breast
MDA-MB-435 = tested on: MDA-MB-435
MDA-N = tested on: MDA-N
MOLT-4 leukemia = tested on: MOLT-4 leukemia
NCI-H23 lung = tested on: NCI-H23 lung
NCI-H460 lung = tested on: NCI-H460 lung
NCI-H522 lung = tested on: NCI-H522 lung
NCI/ADR-RES ovarian = tested on: NCI/ADR-RES ovarian
OVCAR-3 ovarian = tested on: OVCAR-3 ovarian
OVCAR-4 ovarian = tested on: OVCAR-4 ovarian
OVCAR-5 ovarian = tested on: OVCAR-5 ovarian
OVCAR-8 ovarian = tested on: OVCAR-8 ovarian
PC-3 prostate = tested on: PC-3 prostate
RPMI-8226 leukemia = tested on: RPMI-8226 leukemia
RXF 393 renal = tested on: RXF 393 renal
SF-268 CNS = tested on: SF-268 CNS
SF-295 CNS = tested on: SF-295 CNS
SK-MEL-2 melanoma = tested on: SK-MEL-2 melanoma
SK-MEL-28 melanoma = tested on: SK-MEL-28 melanoma
SK-MEL-5 melanoma = tested on: SK-MEL-5 melanoma
SK-OV-3 ovarian = tested on: SK-OV-3 ovarian
SNB-19 CNS = tested on: SNB-19 CNS
SNB-75 CNS = tested on: SNB-75 CNS
SR leukemia = tested on: SR leukemia
SW-620 colon = tested on: SW-620 colon
U251 CNS = tested on: U251 CNS
UACC-257 melanoma = tested on: UACC-257 melanoma
UACC-62 melanoma = tested on: UACC-62 melanoma
UO-31 renal = tested on: UO-31 renal
HL-60(TB) leukemia = tested on: HL-60(TB) leukemia
LOX IMVI melanoma = tested on: LOX IMVI melanoma
NCI-H226 lung = tested on: NCI-H226 lung
SF-539 CNS = tested on: SF-539 CNS
SN12C renal = tested on: SN12C renal
TK-10 renal = tested on: TK-10 renal
CCRF-CEM leukemia = tested on: CCRF-CEM leukemia

Measured: TGI

C/C=C\C(CC(=O)O)CN1CCC2=C(C1)C(S(=O)(=O)C(F)(F)F)c1ccccc12 (stereo unspecified)
not listed: HL-60(TB) leukemia | LOX IMVI melanoma | NCI-H226 lung | SF-539 CNS | SN12C renal | TK-10 renal | CCRF-CEM leukemia
> 100 µM: all other assays above

CC(=O)Nc1ccc(NNc2cc(=O)n(C)c(=O)[nH]2)cc1
29.5 µM: DU-145 prostate
25.2 µM: MALME-3M melanoma
> 100 µM: K-562 leukemia | MOLT-4 leukemia | SR leukemia
43.8 µM: NCI/ADR-RES ovarian
9.69 µM: RPMI-8226 leukemia
4.71 µM: HT29 colon
29.3 µM: SF-295 CNS
46 µM: NCI-H226 lung
49.1 µM: A498 renal
5.72 µM: LOX IMVI melanoma
24.2 µM: SK-MEL-28 melanoma
24.8 µM: MDA-MB-231 breast
12.3 µM: PC-3 prostate
24 µM: COLO 205 colon | HCC-2998 colon | U251 CNS
6.52 µM: OVCAR-3 ovarian
45.1 µM: OVCAR-8 ovarian
26.8 µM: UACC-257 melanoma
34.7 µM: A549 NSCLC
31 µM: UO-31 renal
27 µM: IGROV1 ovarian
31.1 µM: NCI-H23 lung
7.56 µM: SW-620 colon
21.8 µM: M14 melanoma
21.9 µM: OVCAR-4 ovarian
19.3 µM: HCT-116 colon
31.5 µM: EKVX NSCLC
27.1 µM: OVCAR-5 ovarian
30.4 µM: HOP-62 NSCLC
20.6 µM: HCT-15 colon
31.6 µM: SNB-19 CNS
11.4 µM: ACHN renal
23.9 µM: SN12C renal
24.4 µM: KM12 colon
9.64 µM: HOP-92 NSCLC
23.7 µM: MDA-N
45.2 µM: NCI-H460 lung
19.5 µM: MCF7 breast
39 µM: TK-10 renal
31.2 µM: SK-MEL-5 melanoma
6.98 µM: HL-60(TB) leukemia
22.3 µM: MDA-MB-435
25.7 µM: BT-549 breast
30.2 µM: SF-539 CNS
53 µM: HS 578T breast
7.63 µM: 786-0 renal

CC(=O)OCC1OC(N2C(=S)N[C@H]([C@@H](O)[C@H](O)[C@H](O)CO)[C@H]2O)C(OC(C)=O)C(OC(C)=O)C1OC(C)=O (stereo partly specified)
not listed: A498 renal | MALME-3M melanoma | SNB-75 CNS | HL-60(TB) leukemia | LOX IMVI melanoma | NCI-H226 lung | TK-10 renal
> 100 µM: all other assays above

Source: PubChem BioAssay (NCI)
